According to US4550172A, “Novel heterocyclic compounds as antiallergic agents” (American Home Products Corporation, priority 1984, dated 1985):

Tested on: LTD4 induced bronchoconstriction
Experiment: inhibition of LTD4-induced bronchospasm in guinea pigs (SRS-A antagonist properties)
Assay type: in vivo, guinea pigs (male Hartley strain)
Settings: LTD4 for induction, compound 50 mg/kg intraduodenal, 10 minutes before induction of bronchospasm
Description: The assay of this Example measures the in vivo ability of the components of the invention to inhibit the bronchospasm induced in guinea pigs by the exogenously administered leukotrienes C4 and/or D4. This assay is essentially a measure of the SRS-A antagonist properties of the compounds tested.
This assay is carried out as follows:
Male Hartley strain guinea pigs (350-600 g) are anesthetized with pentobarbital sodium (50 mg/kg, i.p.). The jugular vein is cannulated for injection of drugs and the carotid artery for monitoring blood pressure. The trachea is cannulated for artificial ventilation by a miniature Starling pump and for indirect measurement of respiratory volume changes as described infra. Additional pentobarbital sodium (15 mg/kg, i.v.) is administered to arrest spontaneous respiration. Submaximal bronchoconstrictor responses are established in control animals by varying the dose-levels of leukotriene. Intravenous dose-levels for LTC4 range from 1 to 2 μg/kg and for LTD4 the range is from 0.3 to 1 μg/kg. The aerosol bronchoprovocation dose for LTC4 is generated from 1.6 μM solution and for LTD4 from a 2.0 μM solution.
Test drugs are administered either intravenously, intraduodenally, by aerosol or orally at 1 or 10 minutes before induction of bronchospasm by administration of either LTC4 or LTD4 at the predetermined dose-levels. Aerosols of soluble drugs or leukotrienes are produced in-line for 10 seconds only by actuation of an ultrasonic nebulizer (Monaghan). Aerosolized drug dosage is expressed in terms of solution concentration and by a fixed aerosol exposure time (approximately 10 seconds). Control animals receive saline in place of drug.
Respiratory volume changes are determined by a calibrated piston whose travel is recorded, via a linear transducer, on a Beckman Dynograph recorder. Maximal bronchoconstrictor volume is determined by clamping off the trachea at the end of the experiment. Overflow volumes at 1, 3 and 5 minutes are obtained from the recorded charts.
The overflow volume at 1, 3 and 5 minutes is expressed as a percentage of maximal bronchoconstriction. Combined group values are used from each of these time intervals to determine the inhibitory effect of drugs. [formula] Students t-test for unpaired data is used to determine statistical significance. Dose response curves are generated and ED50 doses are interpolated from the regression lines.
Results for a compound of the invention in this assay, using LTD4 for induction of bronchospasm, is given below: […]

Structure (SMILES)	% Inhibition Overflow Volume at 3 min. [%]	% Inhibition Overflow Volume at 5 min. [%]
O=C1CCC(=O)N1c1cccc(OCc2nc3ccccc3s2)c1 [Example 1, N-[3-[(2-benzothiazolyl)methoxy]phenyl]pyrrolidin-2,5-dione]	63	68
Cn1c(COc2cccc(N3C(=O)CCC3=O)c2)nc2ccccc21 [Example 2, N-[3-[(1-methyl-2-benzimidazolyl)methoxy]phenyl]pyrrpolidin-2,5-dione]	75	78
